Tests used:
colon cancer cells = tested on: colon cancer cells; set-up: method as in PMID 30104549; conditions: cited from earlier work
[1] = tested on: normal skin fibroblasts NHDF; experiment: MTT cell viability assay, NHDF; format: cell-based, human; conditions: Homo sapiens, MTT, 72 h, 50 to 400 μM, mean ± SD
Source text: (§1) Three malignant melanoma cell lines (Me45, 1205-Lu and 451-Lu; obtained from the collection of the Centre of Oncology, Gliwice, Poland), neonatal human dermal fibroblast (NHDF; Lonza, Basel, Switzerland) and human colorectal adenocarcinoma cells (Caco-2; ATCC, Manassas, VA, USA) were used in the studies. The human malignant melanoma (Me45) cell line (derived from a lymph node metastasis of skin melanoma) was established in 1997 at the Radiobiology Department of the Centre of Oncology in Gliwice. 1205-Lu and 451-Lu cell lines were derived from human melanoma metastases to lungs of immunodeficient mice. The cells were cultivated in the medium DMEM-F12 (PAA, Warsaw, Poland) supplemented with 10% (for Me45, 1205-Lu and 451-Lu and NHDF) or 20% (Caco-2) of fetal bovine serum (FBS, Eurx, Gdansk, Poland). In addition, medium for Caco-2 cells contained Non-essential Amino Acid Solution (1×) (Sigma-Aldrich, Poznan, Poland). All cell lines were grown in the presence of 1% of antibiotics (10,000 μg/mL streptomycin and 10,000 units/mL penicillin; Sigma-Aldrich, Poznan, Poland), at 37 °C in humidified atmosphere with 5% CO2 under standard conditions. All experimental procedures were carried out in log-phase of cell growth. During some experiments melanoma cells were irradiated with X-rays at the dose of 2 Gy at the 24th hour of the incubation. Ionizing radiation was applied using a laboratory X-Cell 140 irradiator (Kubtec, Bridgeport, CT, USA).
(§2) Cells (Me45, 1205-Lu, 451-Lu and NHDF) were seeded on 96-well plates (20,000 cells/mL) 24 h before the experiment. One day later, fresh media containing tested compounds were added. The appropriate control, containing ethanol:DMSO (v/v 1:1) in fresh medium, was also prepared. The plates were incubated for a given time (72 h for Me45, 1205-Lu, 451-Lu and NHDF; 2 h for Caco-2) at 37 °C in humidified atmosphere with 5% CO2. After incubation, the medium was removed and cells were washed with physiological saline (PBS; PAA, Warsaw, Poland). In the next step, the cells were incubated with MTT (3-[4,5-dimethylthiazol-2-yl]-2,5-diphenyltetrazolium bromide, Sigma-Aldrich, Poznan, Poland) (solution of 0.5 mg/mL in RPMI 1640 without phenol red) for 2 h. Then, the MTT solution was removed and the formazan crystals were dissolved in the mixture isopropanol:HCl (v/v 1:0.04; both purchased from Sigma-Aldrich, Poznan, Poland). The absorbance of the obtained product was read at 570 nm using a microplate reader (Epoch; BioTek, Winooski, VT, USA). Survival rate was expressed as the percentage of cell survival and calculated from the ratio (A570 of treated cells/A570 of control cells) × 100%. The experiments were repeated three times.

Me45 cells [2] = experiment: Cell cycle analysis (PI, flow cytometry), Me45; format: cell-based, human; conditions: Me45, 100 µM, 72 h, vs untreated control
Experimental: (§3) For cell cycle analysis, harvested cells were centrifuged (1500 rpm, 3 min). After supernatant removal, cells were fixed with a hypotonic buffer, containing PI at 100 µg/mL in PBS, 5 mg/l of citric acid, 1:9 Triton-X solution, 100 µg/mL of RNase in PBS (Sigma-Aldrich, Poznan, Poland). Probes were incubated for 20 min at room temperature in the dark, then stored on ice till they were measured.
(§4) Cytometric analyses were performed immediately using an Aria III flow cytometer (Becton Dickinson, Franklin Lakes, NJ, USA) with FITC configuration (488 nm excitation; emission, LP mirror 503, BP filter 530/30) or with PE configuration (547 nm excitation; emission, 585 nm) and at least 10,000 cells were counted.

[3] = tested on: Me45 metastatic melanoma cells; experiment: MTT cell viability assay, Me45; format: cell-based, human; conditions: Homo sapiens; MTT, 72 h, 50 to 400 μM, mean ± SD
Source text: as §1, §2

451-Lu cells [4] = experiment: Cell cycle analysis (PI, flow cytometry), 451-Lu; format: cell-based, human; conditions: 100 µM, 72 h, vs untreated control
Experimental: as §3, §4

451-Lu cells [5] = experiment: Annexin-V/PI apoptosis assay, 451-Lu; format: cell-based, human; conditions: 100 µM, 72 h
Experimental: (§5) The studies of cell cycle, apoptosis and intracellular level of ROS were performed using the flow cytometry method. For the apoptosis assay, the cells were harvested and centrifuged (1500 rpm, 3 min). The apoptosis was measured using an Annexin-V apoptosis assay (BioLegend, San Diego, CA, USA). After supernatant removal, the cells were washed with PBS and centrifuged again. The pellets of cells were suspended in 50 μL of cold Annexin-V binding buffer and stained with FITC-labeled Annexin-V for 30 min at 37 °C in the dark. The Annexin-V binding buffer and propidium iodide (PI) solution (100 μg/mL; Sigma-Aldrich, Poznan, Poland) were then added and the samples were stored on ice till they were measured.
as §4

Me45 cells [6] = experiment: Annexin-V/PI apoptosis assay, Me45; format: cell-based, human; conditions: Me45, 100 µM, 72 h
Experimental: as §5, §4

Me45 melanoma cells = experiment: Intracellular ROS formation (DCFH-DA, flow cytometry), Me45; format: cell-based, human; conditions: Me45, 72 h, DCF fluorescence
Experimental: (§6) The experiments on ROS content were performed after 72 h of incubation with the given compounds. The cells were harvested and centrifuged (1500 rpm, 3 min), washed with PBS and centrifuged again. The pellet was resuspended in culture medium and a cell-permeable non-fluorescent probe 2′,7′-dichlorofluorescin diacetate (DCFH-DA, Sigma-Aldrich, Poznan, Poland) at a final concentration of 30 µM was added. The samples were incubated in darkness for 30 min at 37 °C, then stored on ice till they were measured. DCFH-DA is hydrolyzed by cellular esterases into its polar form DCFH. Due to the intracellular ROS and other peroxides, DCFH undergoes oxidation and turns into highly fluorescent compond 2′,7′-dichlorofluorescein (DCF).
as §4

[7] = tested on: 1205-Lu metastatic melanoma cells; experiment: MTT cell viability assay, 1205-Lu; format: cell-based, human; conditions: Homo sapiens, 1205Lu; MTT, 72 h, 50 to 400 μM, mean ± SD
Source text: as §1, §2

451-Lu melanoma cells = experiment: Intracellular ROS formation (DCFH-DA, flow cytometry), 451-Lu; format: cell-based, human; conditions: 72 h, DCF fluorescence
Experimental: as §6, §4

[8] = tested on: 451-Lu metastatic melanoma cells; experiment: MTT cell viability assay, 451-Lu; format: cell-based, human; conditions: Homo sapiens, 451Lu; MTT, 72 h, 50 to 400 μM, mean ± SD
Source text: as §1, §2

1205-Lu melanoma cells = experiment: Intracellular ROS formation (DCFH-DA, flow cytometry), 1205-Lu; format: cell-based, human; conditions: 72 h, DCF fluorescence
Experimental: as §6, §4

1205-Lu cells = experiment: Annexin-V/PI apoptosis assay, 1205-Lu; format: cell-based, human; conditions: 100 µM
Experimental: as §5, §4

COc1ccc(C(=O)OC[C@H](COP(=O)([O-])OCC[N+](C)(C)C)OC(=O)c2ccc(OC)c(OC)c2)cc1OC [3b, 1,2-diveratroyl-sn-glycero-3-phosphocholine]
overcoming of doxorubicin-resistance (colon cancer cells): partially overcome doxorubicin-resistance
IC50 [1]: 168 ± 11.3 µM
cell cycle phase distribution (Me45 cells [2]): increased the fraction of Me45 cells in the sub-G1 as well as G2/M phases
IC50 [3]: 84.4 ± 14 µM
cell cycle phase distribution (451-Lu cells [4]): increased the fraction of melanoma cells in the sub-G1 phase
fraction of necrotic cells (451-Lu cells [5]): significant increase in the fraction of necrotic cells
induction of apoptosis (451-Lu cells [5]): significant potency to induce apoptosis
induction of apoptosis (Me45 cells [6]): significant potency to induce apoptosis
reactive oxygen species formation (antioxidant activity, words) (Me45 melanoma cells): highest ability to reduce ROS formation
IC50 [7]: 153 ± 9.5 µM
reactive oxygen species formation (antioxidant activity, words) (451-Lu melanoma cells): highest ability to reduce ROS formation
IC50 [8]: 48.3 ± 5.5 µM
reactive oxygen species formation (antioxidant activity, words) (1205-Lu melanoma cells): highest ability to reduce ROS formation
fraction of cells in the early stage of apoptosis (1205-Lu cells; 48 h of incubation, without irradiation): ~ 22%
fraction of necrotic cells (1205-Lu cells; 72 h): significant increase in the fraction of necrotic cells
induction of apoptosis (1205-Lu cells; 72 h): significant potency to induce apoptosis

Source: article PMC8395125, “Conjugation with Phospholipids as a Modification Increasing Anticancer Activity of Phenolic Acids in Metastatic Melanoma—In Vitro and In Silico Studies” (International Journal of Molecular Sciences, 2021)
